Experiment [1] has as its system A. thaliana (Col-0) mesophyll cell protoplasts. The experiment can be described thus: Mesophyll cell protoplast swelling (volume). Particulars: 100 nM peptide or 1 μg mL^−1 rAtPNP-A, 0.4 M mannitol, 20 min, room temperature, n = 50, P < 0.0001. It is filed as cell-based, Arabidopsis thaliana. An excerpt:
Peptides containing amino acid sequence of the active region of AtPNP-A and corresponding scrambled peptides, having the same amino acid composition but in a randomized order (Fig. 1a), with or without C-terminal biotin tag, were synthesized by GenScript (Piscataway, USA) at the purity level > 95% verified with HPLC and their biological activity was verified as described previously.
Figure 1 Biologically active peptide containing the active region of AtPNP-A protein binds to CAT2. (a) Domain organization of AtPNP-A and the amino acid sequences of C-terminally biotinylated peptides used in affinity chromatography-based experiments—a peptide containing the active site of AtPNP-A (indicated as pAtPNP-A) or the corresponding scrambled peptide (indicated as pScr). Cysteine residues forming a disulfide bond, characteristic to natriuretic peptide (NP)-like molecules, are underlined. SP, signal peptide. (b) Assaying biological activity of the AtPNP-A peptide (pAtPNP-A) and purified recombinant protein (rAtPNP-A). […] In each treatment, 50 randomly selected protoplasts with diameter > 20 µm were included in quantitative analysis (scale bar = 20 µm). Protoplast volume was measured and the data obtained from an exemplar experiment are plotted. […]

Another experiment concerns stomata. Particulars: cited from earlier work. An excerpt:
A PNP_CAT interaction in plant responses to infecting pathogens is not surprising. CATs commonly function to down-regulate ROS during ABA-induced stomatal closure, and ABA-induced stomatal closure can be inhibited by removal of H2O2 via CAT2[73],[74]. […] Therefore, it is tempting to speculate that AtPNP-A modulates the effect of ABA on stomatal aperture through the interaction w ...

A further experiment relates to leaf discs of WT plants. The experiment can be described thus: Oxidative burst (ROS) in leaf discs. Also on record: species or system Arabidopsis thaliana. Particulars: leaf discs pre-treated with 100 nM rAtPNP-A for 30 min, then 1 μM flg22, luminol luminescence, 1 h, n = 11–12, P < 0.01. The procedure: Leaf discs (0.196 cm[2]) of 4-week-old WT plants were incubated overnight floating on 0.1 mL water in 96-well titer plate, with one disc per well. The following day the leaf discs were pre-treated with 100 nM rAtPNP-A or mock for 30 min. For ROS detection horseradish peroxidase and luminol (Sigma-Aldrich) were added to a final concentration of 10 μg mL^−1 and 100 μM, respectively. Luminescence was measured directly after addition of either 1 μM of flg22 or 100 nM rAtPNP-A in a MicroLumat LB96P plate reader (Berthold Technologies) for 1 h and is shown in relative light units.
Supplementary Figure S2. AtPNP-A participates in plant immunity.
Kinetics of ROS production after treatment of leaf discs with 1 μM flg22 with or without pre-treatment with 100 nM recombinant AtPNP-A (rAtPNP-A), or after treatment with rAtPNP-A only. Data are shown as mean ± SEM (two-way repeated measure ANOVA followed by Tukey’s multiple comparison test, n = 11 – 12, * P < 0.01). Total production of ROS during 60 min after treatment with rAtPNP-A, flg22, or flg22 and rAtPNP-A pre-treatment is shown as median ± SD (one-way ANOVA and Tukey-Kramer multiple comparison test, n = 11 – 12, P < 0.01) with statistically significant differences indicated by different letters.
(1 picture or pasted object on this page, not shown here)

For a further experiment, the system named is CAT2. The experiment can be described thus: Bimolecular fluorescence complementation (BiFC). It is filed as cell-based, Arabidopsis thaliana. Particulars: chloroplasts of tobacco leaf protoplasts; NeYFP/CeYFP fusions; mean ± SEM, n = 30, P < 0.0001. An excerpt:
The full-length A. thaliana AtPNP-A (At2g18660) coding region entry plasmid pENTRYAtPNP-A[46] and pCR8/GW-TOPOCAT2 were recombined separately with both pSITE-nEYFP-C1 [GenBank Accession Number GU734651] and pSITE-cEYFP-C1 [GenBank Accession Number GU734652] to create pNeYFP-AtPNP-A, pCeYFP-AtPNP-A, pNeYFP-CAT2 and pCeYFP-CAT2, respectively. Each plasmid has either the N-terminal (NeYFP) or C-terminal (CeYFP) fragment of eYFP followed by either AtPNP-A or CAT2 coding region driven by the 35S plant expression promoter. After sequence was confirmed each plasmid was transformed separately into Agrobacterium tumefaciens strain GV3101 (pMP90). Tobacco leaves were infiltrated as previously described in[50]. Briefly, A. tumefaciens strains grown in 2YT medium were harvested by centrifugation and resuspended in infiltration medium (10 mM MES pH 5.6, 10 mM MgCl2, 150 µM acetosyringone) to a final OD600 of 0.2. Equal volumes of infiltration media containing relevant BiFC strains were mixed and infiltrated into the underside of tobacco leaves using a needleless syringe. Leaves were harvested after 3 days to isolate protoplasts following[51] and then immediately imaged.
BiFC images were captured at the La Trobe University LIMS BioImaging Facility using a LSM 510 confocal laser scanning microscope (Zeiss), with a × 40/1.2 water immersion objective. The natural red autofluorescence of chlorophyll was used as a marker for chloroplasts. Excitation/emission wavelengths were 488/505–530 nm for YFP and 561/650 nm long pass for red fluorescence. At least three images containing one or more protoplasts were taken for each of the plasmid construct combinations. Each image captured three separate filter scans, including YFP, red fluorescence and bright field. Post-processing of images was performed with ImageJ version 1.48 software (https://imagej.nih.gov/ij/). For each image the contrast for each panel was set at automatic contrast. A merged image was generated for reference with a 10 µm scale bar. The red fluorescence only panel was used to encircle ten chloroplasts as region of interest (ROI), then the YFP fluorescence (BiFC) calculated for each ROI was divided by the red fluorescence calculated for the same ROI. All BiFC/red fluorescence points were plotted using GraphPadPrism7 (GraphPadSoftware). Mean and standard error were calculated for each BiFC combination. All statistical analyses were performed using GraphPadPrism7.
Figure 4 AtPNP-A interacts with CAT2 in vivo. […] Exemplar merged images of protoplasts isolated from a leaf infiltrated with different combinations of N- or C-terminally tagged CAT2 and AtPNP-A are shown. (g) BiFC/Red fluorescence chloroplast analysis with mean ± SEM in pink.

Consider two compounds from PMC7665192, “A natriuretic peptide from Arabidopsis thaliana (AtPNP-A) can modulate catalase 2 activity” (Scientific Reports, 2020).

Positions of bridges follow the written chain, without caps; N, C: chain ends. Residues, ends and D or L forms follow the SMILES beside them. *: point of attachment. Biotin = O=C1N[C@H]2[C@H](CS[C@H]2CCCCC(=O)*)N1

Regarding `CC(C)C[C@@H]1NC(=O)[C@H](CC(N)=O)NC(=O)[C@H](CC(N)=O)NC(=O)[C@H](CCCCN)NC(=O)[C@H](C(C)C)NC(=O)CNC(=O)[C@H](C(C)C)NC(=O)[C@H](C(C)C)NC(=O)[C@H](CC(C)C)NC(=O)[C@H]([C@@H](C)O)NC(=O)[C@H](CCC(=O)O)NC(=O)[C@H](CCCNC(=N)N)NC(=O)[C@H](CCC(N)=O)NC(=O)[C@H]([C@@H](C)O)NC(=O)CNC(=O)[C@H](Cc2ccc(O)cc2)NC(=O)[C@@H](NC(=O)[C@H](C)NC(=O)[C@H](CO)NC(=O)[C@H](CCCNC(=N)N)NC(=O)[C@@H](NC(=O)[C@H](Cc2ccc(O)cc2)NC(=O)[C@@H]2CCCN2)[C@@H](C)O)CSSC[C@@H](C(=O)NCC(=O)N[C@@H](CCCNC(=N)N)C(=O)N[C@@H](CCCNC(=N)N)C(=O)N[C@@H](Cc2ccc(O)cc2)C(=O)N[C@@H](CCCNC(=N)N)C(=O)N[C@H](C(=O)N[C@@H](CCCNC(=N)N)C(=O)N[C@@H](CCCCNC(=O)CCCC[C@@H]2SC[C@@H]3NC(=O)N[C@@H]32)C(=O)O)C(C)C)NC(=O)[C@H](C)NC(=O)[C@H](CCCNC(=N)N)NC(=O)CNC(=O)[C@H](CC(N)=O)NC(=O)[C@H](CCC(N)=O)NC(=O)[C@H](Cc2c[nH]c3ccccc23)NC1=O` [pAtPNP-A] (H-PYTRSACYGTQRETLVVGVKNNLWQNGRACGRRYRVRK(Biotin)-OH; disulfide 7-30; N-terminus and C-terminus assumed), the “Protoplast swelling response (volume)” value in experiment [1] is on record as “significantly greater than the response elicited by the scrambled peptide (pScr)”.
Regarding “AtPNP-A: An A. thaliana PNP, termed AtPNP-A (At2g18660; Q9ZV52)”, the “Effect on ABA-induced stomatal closure” value with stomata was “significantly delay and reduce the extent of ABA-induced stomatal closure”. The figures for the “Effect on flg22-induced oxidative burst” value with leaf discs of WT plants, in the experiment with leaf discs of WT plants (listed as AtPNP) and in the experiment on leaf discs of WT plants (listed as PNP) were “enhanced flg22-induced oxidative burst”, “enhances responses to flg22” and “enhances oxidative burst”, respectively. Besides, in the experiment with CAT2, the “BiFC / Red fluorescence signal, interaction with CAT2” value is recorded as “interaction of the proteins in chloroplasts of protoplasts”.
